Reference: ChEMBL document CHEMBL1140260, “Synthesis and SAR of diazepine and thiazepine TACE and MMP inhibitors” (Bioorg Med Chem Lett, 2005)

Columns and labels:
Mus musculus [1] = test: Percent inhibition ofTNF-alpha release 1 hr after oral dosing at 50 mpk; format: functional
Mus musculus [2] = test: Percent inhibition ofTNF-alpha release 6 hr after oral dosing at 50 mpk; format: functional
THP-1 [3] = test: Percent inhibition against LPS stimulated THP-1 cellular assay at 3 uM; format: functional; conditions: Homo sapiens
[4] = biological target: T1, Interstitial collagenase (Homo sapiens) (UniProt P03956); test: Percent inhibition against matrix metalloprotease-1 at 1 uM
T1 sequence (whole entry): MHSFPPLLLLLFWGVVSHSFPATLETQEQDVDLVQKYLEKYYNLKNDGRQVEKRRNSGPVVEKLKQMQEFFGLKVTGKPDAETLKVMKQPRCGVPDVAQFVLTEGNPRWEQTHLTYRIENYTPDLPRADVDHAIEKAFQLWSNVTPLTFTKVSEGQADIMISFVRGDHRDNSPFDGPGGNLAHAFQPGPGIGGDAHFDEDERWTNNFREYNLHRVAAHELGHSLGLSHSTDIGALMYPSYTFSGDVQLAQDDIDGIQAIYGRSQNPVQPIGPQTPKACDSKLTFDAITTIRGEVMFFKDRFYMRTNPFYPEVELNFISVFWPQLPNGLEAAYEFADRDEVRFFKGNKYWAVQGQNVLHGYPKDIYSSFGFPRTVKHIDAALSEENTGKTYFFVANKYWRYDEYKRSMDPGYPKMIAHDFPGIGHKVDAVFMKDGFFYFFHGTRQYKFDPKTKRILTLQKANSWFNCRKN

[5] = biological target: Disintegrin and metalloproteinase domain-containing protein 17 (Homo sapiens, UniProt P78536); test: Inhibitory concentration against TNF-alpha converting enzyme at 1 uM
Chain of Disintegrin and metalloproteinase domain-containing protein 17 (P78536 whole entry, the tested form may be a part): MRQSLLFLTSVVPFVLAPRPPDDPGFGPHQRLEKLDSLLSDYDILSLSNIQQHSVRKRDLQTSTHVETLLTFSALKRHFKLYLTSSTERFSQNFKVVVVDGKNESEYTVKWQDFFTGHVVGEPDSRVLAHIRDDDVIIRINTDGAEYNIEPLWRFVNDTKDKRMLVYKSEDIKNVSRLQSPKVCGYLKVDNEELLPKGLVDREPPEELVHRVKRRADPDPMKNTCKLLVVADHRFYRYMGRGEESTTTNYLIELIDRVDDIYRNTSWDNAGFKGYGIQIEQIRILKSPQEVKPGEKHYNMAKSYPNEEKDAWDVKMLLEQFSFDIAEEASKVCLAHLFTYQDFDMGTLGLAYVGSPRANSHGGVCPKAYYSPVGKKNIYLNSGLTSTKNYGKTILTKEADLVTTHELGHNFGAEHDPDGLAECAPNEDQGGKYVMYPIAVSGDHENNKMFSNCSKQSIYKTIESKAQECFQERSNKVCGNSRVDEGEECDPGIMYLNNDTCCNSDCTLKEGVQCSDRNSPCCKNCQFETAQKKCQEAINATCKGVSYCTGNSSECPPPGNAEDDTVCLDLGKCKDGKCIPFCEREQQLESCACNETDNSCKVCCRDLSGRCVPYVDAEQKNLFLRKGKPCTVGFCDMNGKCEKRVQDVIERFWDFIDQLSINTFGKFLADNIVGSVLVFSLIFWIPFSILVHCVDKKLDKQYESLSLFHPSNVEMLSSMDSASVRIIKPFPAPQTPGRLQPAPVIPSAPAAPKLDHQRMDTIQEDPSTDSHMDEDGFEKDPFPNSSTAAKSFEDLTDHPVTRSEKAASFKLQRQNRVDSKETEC

Collagenase 3 = Collagenase 3 (Homo sapiens, UniProt P45452)
Description: Inhibitory concentration against Matrix metalloprotease-13 at 1 uM

Mus musculus [6] = test: Percent inhibition ofTNF-alpha release 1 hr after oral dosing at 25 mpk; format: functional
Interstitial collagenase = biological target: T2, Interstitial collagenase (Homo sapiens, UniProt P03956); test: (§1) Inhibitory concentration against matrix metalloprotease-1 at 1 uM
T2 sequence (P03956 whole entry): T1 sequence (whole entry)

THP-1 [7] = test: Percent inhibition against LPS stimulated THP-1 cellular assay at 1 uM; format: functional; conditions: Homo sapiens
Mus musculus [8] = species: Mus musculus; test: Plasma clearance of compound in mice plasma; format: functional, organism-based
Mus musculus [9] = test: Oral bioavailability of compound in mice; format: functional, organism-based
Mus musculus [10] = test: Half life of compound in mice after i.v. administration at 5 mg/kg; format: functional, organism-based; set-up: dose 5 mg/kg
Mus musculus [11] = test: Half life of compound in mice after p.o. administration at 50 mg/kg
Mus musculus [12] = test: Half life of compound in mice after i.p. administration at 10 mg/kg; format: functional, organism-based; set-up: dose 10 mg/kg
[13] = Volume of distribution of compound in mice; format: ADME, organism-based; conditions: mouse, in vivo
Mus musculus [14] = test: Percent reduction induced by compound in the mouse collagen induced arthritis model after 35 days of peroral dosing at 20 mpk, twice daily; format: functional
[15] = biological target: T1, Interstitial collagenase (Homo sapiens); test: as §1
THP-1 [16] = test: Percent inhibition against LPS stimulated THP-1 cell assay at 3 uM; format: functional; conditions: Homo sapiens

SMILES	inhibition in vivo at 50 mg/kg (Mus musculus [1])	inhibition at 3 µM (THP-1 [3])	IC50 [5]	IC50 (Collagenase 3)	IC50 (Interstitial collagenase)	further results
CC#CCOc1ccc(S(=O)(=O)N2CCN(Cc3ccccc3)CCC2C(=O)NO)cc1 (stereo not drawn)	17%	–	–	–	–	inhibition in vivo at 50 mg/kg (Mus musculus [2]): 0%
CC#CCOc1ccc(S(=O)(=O)N2CCCN(C(=O)NCCCCCC)CC2C(=O)NO)cc1 (stereo not drawn)	–	36%	14 nM	307 nM	–	inhibition [4]: 34%
CC#CCOc1ccc(S(=O)(=O)N2CCCNCC2C(=O)NO)cc1 (stereo not drawn)	–	43%	11 nM	225 nM	576 nM	inhibition in vivo at 25 mg/kg (Mus musculus [6]): 4%
CC#CCOc1ccc(S(=O)(=O)N2CCN(C(=O)OC(C)(C)C)CCC2C(=O)NO)cc1 (stereo not drawn)	88%	–	–	–	–	inhibition in vivo at 50 mg/kg (Mus musculus [2]): 43%
CC#CCOc1ccc(S(=O)(=O)N2CCCN(S(=O)(=O)CCC)CC2C(=O)NO)cc1 (stereo not drawn)	–	74%	30 nM	140 nM	1140 nM	inhibition in vivo at 25 mg/kg (Mus musculus [6]): 0%
CC#CCOc1ccc(S(=O)(=O)N2CCN(C(=O)COC)CCC2C(=O)NO)cc1 (stereo not drawn)	–	79%	15 nM	31 nM	277 nM	–
CC#CCOc1ccc(S(=O)(=O)N2CCCN(C(=O)CCCN(C)C)CC2C(=O)NO)cc1 (stereo not drawn)	–	33%	75 nM	395 nM	–	inhibition [4]: 19%
CC#CCOc1ccc(S(=O)(=O)N2CCSCCC2C(=O)NO)cc1 (stereo not drawn)	70%	–	–	11 nM	171 nM	inhibition in vivo at 50 mg/kg (Mus musculus [2]): 41%
CC#CCOc1ccc(S(=O)(=O)N2CCCSCC2C(=O)NO)cc1 (stereo not drawn)	24%	80%	20 nM	36 nM	408 nM	–
CC#CCOc1ccc(S(=O)(=O)N2CCS(=O)(=O)CCC2C(=O)NO)cc1 (stereo not drawn)	94%	92%	19 nM	8 nM	114 nM	–
CC#CCOc1ccc(S(=O)(=O)N2CCN(C(=O)c3ccccc3)CCC2C(=O)NO)cc1 (stereo not drawn)	35%	–	–	–	–	inhibition in vivo at 50 mg/kg (Mus musculus [2]): 0%
CC#CCOc1ccc(S(=O)(=O)N2CCCN(C(=O)CN)CC2C(=O)NO)cc1 (stereo not drawn)	–	62%	12 nM	1060 nM	3030 nM	–
CC#CCOc1ccc(S(=O)(=O)N2CCN(CC)CCC2C(=O)NO)cc1 (stereo not drawn)	–	–	37 nM	17 nM	285 nM	inhibition at 1 µM (THP-1 [7]): 57%
CC#CCOc1ccc(S(=O)(=O)N2CCNCCC2C(=O)NO)cc1 (stereo not drawn)	97%	–	–	32 nM	–	CL (mL.min-1.kg-1) (Mus musculus [8]): 64.3; bioavailability (Mus musculus [9]): 18%; T1/2 (Mus musculus [10]): 1.43 h; inhibition in vivo at 50 mg/kg (Mus musculus [2]): 62%; T1/2 (Mus musculus [11]): 0.86 h; T1/2 (Mus musculus [12]): 2.64 h; Vd [13]: 2.49 L/kg; Reduction (Mus musculus [14]): 56%
CC#CCOc1ccc(S(=O)(=O)N2CCN(C)CCC2C(=O)NO)cc1 (stereo not drawn)	32%	–	–	–	–	inhibition in vivo at 50 mg/kg (Mus musculus [2]): 39%
CC#CCOc1ccc(S(=O)(=O)N2CCCN(C(=O)c3cccs3)CC2C(=O)NO)cc1 (stereo not drawn)	–	41%	10 nM	142 nM	–	–
CC#CCOc1ccc(S(=O)(=O)N2CCCN(Cc3ccccc3)CC2C(=O)NO)cc1 (stereo not drawn)	–	41%	61 nM	52 nM	212 nM	–
CC#CCOc1ccc(S(=O)(=O)N2CCCN(C)CC2C(=O)NO)cc1 (stereo not drawn)	–	42%	24 nM	180 nM	–	inhibition [15]: 36%
CC#CCOc1ccc(S(=O)(=O)N2CCN(C(=O)CC)CCC2C(=O)NO)cc1 (stereo not drawn)	–	–	19 nM	20 nM	207 nM	inhibition at 1 µM (THP-1 [7]): 63%
CC#CCOc1ccc(S(=O)(=O)N2CCCN(C(C)=O)CC2C(=O)NO)cc1 (stereo not drawn)	–	74%	4 nM	305 nM	–	inhibition in vivo at 25 mg/kg (Mus musculus [6]): 10%
CC#CCOc1ccc(S(=O)(=O)N2CCCN(S(C)(=O)=O)CC2C(=O)NO)cc1 (stereo not drawn)	–	71%	5 nM	128 nM	–	inhibition in vivo at 25 mg/kg (Mus musculus [6]): 35%; inhibition [4]: 40%
CC#CCOc1ccc(S(=O)(=O)N2CCN(C(=O)C(C)C)CCC2C(=O)NO)cc1 (stereo not drawn)	–	95%	23 nM	9 nM	142 nM	–
CC#CCOc1ccc(S(=O)(=O)N2CCCN(C(=O)OC(C)(C)C)CC2C(=O)NO)cc1 (stereo not drawn)	–	–	35 nM	363 nM	–	inhibition [4]: 26%; inhibition at 3 µM (THP-1 [16]): 13%
CC#CCOc1ccc(S(=O)(=O)N2CCCN(S(=O)(=O)c3ccccc3)CC2C(=O)NO)cc1 (stereo not drawn)	–	62%	68 nM	88 nM	–	inhibition in vivo at 25 mg/kg (Mus musculus [6]): 46%; inhibition [4]: 39%
CC#CCOc1ccc(S(=O)(=O)N2CCCS(=O)(=O)CC2C(=O)NO)cc1 (stereo not drawn)	77%	–	28 nM	311 nM	334 nM	–
CC#CCOc1ccc(S(=O)(=O)N2CCCN(C(=O)CNC(=O)OC(C)(C)C)CC2C(=O)NO)cc1 (stereo not drawn)	–	71%	7 nM	446 nM	4580 nM	inhibition in vivo at 25 mg/kg (Mus musculus [6]): 68%
